From ChEMBL document CHEMBL3885861, “Open TG-GATES”

Species on record: Rattus norvegicus
Test: Open TG-GATES - Regimen: Single
Type: toxicity, organism-based, Sprague-Dawley
Set-up: regimen Single, gender Male, age 6 weeks
Conditions: in vivo, po, 50 mg/kg, route gavage, dose level Low; for APTT / Bas / Eos / Fbg / Hb / Ht / Lym / MCH / MCHC / MCV / Mono / Neu / PT / Plat / RBC / Ret / WBC: tissue Blood; for KIDNEY_L / KIDNEY_R / KIDNEY_TOTAL: tissue Kidney; for LIVER: tissue Liver; for A/G / ALP / ALT / AST / BUN / CRE / Ca / Cl / DBIL / GLC / IP / K / LDH / Na / PL / RALB / TBIL / TC / TG / TP / gamma-GTP: tissue Plasma

## CC(=O)Oc1cc(C(C)C)c(OCCN(C)C)cc1C [MOXISYLYTE]
3 h
  TERMINAL_BW: 210.1 g
  APTT: 21.8 s
  Bas: 0%
  Eos: 1.2%
  Fbg: 298.6 mg/dL
  Hb: 13.1 g/dL
  Ht: 38.6%
  Lym: 80%
  MCH: 21 pg
  MCHC: 34%
  MCV: 61.9 fL
  Mono: 2.4%
  Neu: 15.8%
  PT: 16.3 s
  Plat: 122 x10_4/uL
  RBC: 624.4 x10_4/ul
  Ret: 8.5%
  WBC: 93.6 x10_2/uL
  KIDNEY_L: 0.9 g
  KIDNEY_R: 0.9 g
  KIDNEY_TOTAL: 1.9 g
  LIVER: 9.4 g
  A/G: 1.2
  ALP: 1650.4 IU/L
  ALT: 42.8 IU/L
  AST: 80.2 IU/L
  BUN: 13.8 mg/dL
  CRE: 0.1 mg/dL
  Ca: 10.8 mg/dL
  Cl: 107.6 meq/L
  DBIL: 0.002 mg/dL
  GLC: 180.2 mg/dL
  IP: 8.6 mg/dL
  K: 4.5 meq/L
  LDH: 254.2 IU/L
  Na: 142.4 meq/L
  PL: 134.8 mg/dL
  RALB: 3 g/dL
  TBIL: 0.018 mg/dL
  TC: 72.6 mg/dL
  TG: 70.2 mg/dL
  TP: 5.4 g/dL
  gamma-GTP: 1 IU/L
6 h
  TERMINAL_BW: 210.4 g
  APTT: 22.1 s
  Bas: 0%
  Eos: 0.8%
  Fbg: 309.8 mg/dL
  Hb: 13 g/dL
  Ht: 37.8%
  Lym: 77%
  MCH: 21.3 pg
  MCHC: 34.5%
  MCV: 61.7 fL
  Mono: 2.4%
  Neu: 18.8%
  PT: 15.9 s
  Plat: 116 x10_4/uL
  RBC: 612.6 x10_4/ul
  Ret: 8.4%
  WBC: 70 x10_2/uL
  KIDNEY_L: 0.9 g
  KIDNEY_R: 0.9 g
  KIDNEY_TOTAL: 1.9 g
  LIVER: 9 g
  A/G: 1.3
  ALP: 1379.6 IU/L
  ALT: 35.8 IU/L
  AST: 70.6 IU/L
  BUN: 11 mg/dL
  CRE: 0.1 mg/dL
  Ca: 10.6 mg/dL
  Cl: 107.4 meq/L
  DBIL: 0.004 mg/dL
  GLC: 181.4 mg/dL
  IP: 9.2 mg/dL
  K: 4.4 meq/L
  LDH: 189 IU/L
  Na: 141.4 meq/L
  PL: 146.8 mg/dL
  RALB: 3 g/dL
  TBIL: 0.028 mg/dL
  TC: 84.2 mg/dL
  TG: 74 mg/dL
  TP: 5.3 g/dL
  gamma-GTP: 1 IU/L
9 h
  TERMINAL_BW: 208.4 g
  APTT: 20.8 s
  Bas: 0%
  Eos: 0.4%
  Fbg: 309.8 mg/dL
  Hb: 13.3 g/dL
  Ht: 38.7%
  Lym: 83.4%
  MCH: 21.2 pg
  MCHC: 34.4%
  MCV: 61.8 fL
  Mono: 1.4%
  Neu: 14.2%
  PT: 15.8 s
  Plat: 122.4 x10_4/uL
  RBC: 627 x10_4/ul
  Ret: 8.1%
  WBC: 81 x10_2/uL
  KIDNEY_L: 0.9 g
  KIDNEY_R: 0.9 g
  KIDNEY_TOTAL: 1.8 g
  LIVER: 8.6 g
  A/G: 1.3
  ALP: 1432 IU/L
  ALT: 40.6 IU/L
  AST: 71.2 IU/L
  BUN: 12 mg/dL
  CRE: 0.1 mg/dL
  Ca: 10.6 mg/dL
  Cl: 108.2 meq/L
  DBIL: 0.012 mg/dL
  GLC: 182.6 mg/dL
  IP: 9.4 mg/dL
  K: 4.3 meq/L
  LDH: 242.6 IU/L
  Na: 143 meq/L
  PL: 144.8 mg/dL
  RALB: 3.1 g/dL
  TBIL: 0.018 mg/dL
  TC: 82.6 mg/dL
  TG: 84.2 mg/dL
  TP: 5.6 g/dL
  gamma-GTP: 1.2 IU/L
24 h
  TERMINAL_BW: 221.4 g
  APTT: 19.7 s
  Bas: 0%
  Eos: 1%
  Fbg: 309 mg/dL
  Hb: 13.2 g/dL
  Ht: 38.3%
  Lym: 79.4%
  MCH: 21.2 pg
  MCHC: 34.5%
  MCV: 61.5 fL
  Mono: 2.2%
  Neu: 16.8%
  PT: 15.8 s
  Plat: 122.9 x10_4/uL
  RBC: 622.4 x10_4/ul
  Ret: 8.5%
  WBC: 94.4 x10_2/uL
  KIDNEY_L: 0.9 g
  KIDNEY_R: 0.9 g
  KIDNEY_TOTAL: 1.9 g
  LIVER: 10.7 g
  A/G: 1.2
  ALP: 1498.2 IU/L
  ALT: 52.4 IU/L
  AST: 89.6 IU/L
  BUN: 18.4 mg/dL
  CRE: 0.1 mg/dL
  Ca: 11.1 mg/dL
  Cl: 107 meq/L
  DBIL: 0 mg/dL
  GLC: 181.8 mg/dL
  IP: 7.5 mg/dL
  K: 4.4 meq/L
  LDH: 271 IU/L
  Na: 142 meq/L
  PL: 163.4 mg/dL
  RALB: 3.1 g/dL
  TBIL: 0.002 mg/dL
  TC: 84.8 mg/dL
  TG: 117 mg/dL
  TP: 5.8 g/dL
  gamma-GTP: 1.2 IU/L
